Patent US11655254B2, “Substituted piperazines as BTK inhibitors” (HUTCHISON MEDIPHARMA LIMITED, priority 2020, dated 2023)

What was measured:
[1] = biological target: Phosphorylated BTK in Ramos cells (Homo sapiens (Human), UniProt Q06187); test: Determination of phosphorylated BTK in Ramos cells (BTK phospho-Y223 HTRF); format: cell-based; details: Ramos cells stimulated with immunoglobulin M 10 μg/mL and hydrogen peroxide 3.3 mM, 10 minutes
Method: Ramos cells were starved in PRMI 1640 medium with 1% FBS for 2 hours. The starved Ramos cells were diluted with Hank's balanced salt solution to 5.0×10^6 cells/ml, seeded in a 96-well plate with 20 μL/well (1.0×10^5 cells/well), and cultured in a 5% CO2, 37° C. cell incubator. […]
The 384 well plate incubated overnight in the constant temperature incubator was taken out to detect the luminescence signal using the Envision microwell plate reader at the […]. The reading value at 665 nm/615 nm of each well multiplied by 10^4 was used as the signal value of each well.
The average signal value of the wells supplemented with the mixed solution of human immunoglobulin M (final concentration was 10 μg/mL) and hydrogen peroxide (final concentration was 3.3 mM) without the test compound was regarded as the high value, and the average signal value of the wells without immunoglobulin M stimulation and without the test compound was regarded as the low value. According to the signal value in each well, the inhibition ratio (%) of each concentration of compounds was calculated, and the 205 model in XL-Fit 5.3 software (ID Business Solutions Limited) was used to obtain an IC50 value.
The inhibition ratio is calculated as follows: inhibition ratio (%)=100%−{(treating well for the test compound−negative control treating well)/(control treating well for anti-human immunoglobulin M−negative control treating well)}×100%, wherein, […]

[2] = system: B cell activation in mice whole blood (BTK target); test: In vivo inhibitory effect on BTK target: anti-IgD antibody-induced B cell activation in mice whole blood after oral dosing; design: species or system mouse; details: 20 mg/kg oral gavage, single administration, 16 h
Text: Objects: B cells in mice whole blood were induced and activated by the anti-IgD antibody, and the inhibitory effect of the compound of the present invention on B cell activation in vivo was studied, so as to determine the inhibitory effect of the compound of the present invention on the BTK target in vivo.
Methods: C57BL/6 mice (female, 18-20 g, purchased from Shanghai Lingchang Biotechnology Co., Ltd.) were grouped according to Table 1.
In addition, the blood of mice in the drug-treated group was centrifuged to separate plasma for blood concentration analysis.
Calculation for Inhibition Ratio: Inhibition ratio=(percentage of B cell activation ratio in anti-IgD antibody-induced vehicle group-percentage of B cell activation ratio in drug-treated group)/(percentage of B cell activation ratio in anti-IgD antibody-induced vehicle group-percentage of B cell activation ratio in vehicle control group)×100%
All data are represented by mean±standard error. For the comparison between each drug-treated group and the anti-IgD antibody-induced vehicle group, p value was calculated by Graphpad Prism using one-way ANOVA analysis of variance and Dunnett's test, and for the comparison between each drug-treated group, p value was calculated by using unpaired t test.

[3] = Drug concentration in plasma of mice of the B cell activation study; format: in vivo; details: C57BL/6, plasma; mouse, 20 mg/kg oral, 16 h after administration
Method: The animals of each group were administered, then were placed in CO2 for anesthesia at designated time points, blood samples were taken from […] via retro-orbital bleeding, and heparin was used for anticoagulation; 90 μL of whole blood was taken from mice of each group, and added to a 96 well culture plate, and anti-mouse IgD antibody (BIO-RAD, Cat #MCA4693) was added to each well to a final concentration of 0.01 μg/μL (respectively for each drug-treated group and anti-IgD antibody-inducted vehicle group); in addition, 90 μL of whole blood of mice in the vehicle group was taken and added to the 96-well culture plate, and PBS (phosphate buffer, GIBCO, Cat # C20012500BT) was added to each well to a final concentration of 0.01 μg/μL (namely, the vehicle control group); Each group was mixed well and incubated in a 37° C./5% CO2 incubator for 4 hours. In addition, the blood of mice in the drug-treated group was centrifuged to separate plasma for blood concentration analysis.

[4] = Stability test in liver microsomes (rat); format: in vitro ADME; details: rat liver microsomes 0.5 mg/mL, compound 1 μM, 37° C.
Method: The test compound stock solution was diluted with an organic solvent (usually a mixture of acetonitrile, methanol and water with various ratios, depending on the solubility of the compound, if necessary, 1 N hydrochloric acid or 1 N sodium hydroxide would be added to facilitate solubilization) to the 0.1 mM (the final concentration of the compound in the reaction system was 1 μM) and the concentration percentage of the organic solvents in the incubation system no more than 1% (wherein the percentage of DMSO was required to be no more than 0.1%). An appropriate amount of 100 mM NADP, 500 mM G-6-P and 100 Unit/mL G-6-PDH were mixed and diluted with ultrapure water (the final system contains 1 mM NADP, 5 mM G-6-P and 1 Unit/mL G-6-PDH), pre-incubated in a 37° C. water bath for 10 minutes and then placed on ice for use as a NADPH regeneration solution. 20 mg/mL liver microsomes solution and 200 mM phosphate buffer were mixed, and diluted with ultrapure water to give a liver microsomes solution containing 2.5 mg/mL liver microsomes (the final concentration of the reaction system is 0.5 mg/mL) and 50 mM phosphate buffer. […]
The percentage of the remaining compound after 30 minutes of incubation comparing with that in the 0-minute sample was calculated using the peak area ratio of the compound to the internal standard as an indicator, to evaluate the metabolic stability of the compound.

[5] = system: CIA (collagen induced arthritis) rats; test: Rat arthritis model induced by type II collagen (CIA); format: in vivo; details: compared with vehicle control group
Method: An appropriate amount of bovine type II collagen (CII, Chondrex (Redmond, Wash., USA), Cat #20021) was weighed and dissolved in 0.1 mole of acetic acid (SPGC Sinopharm Chemical Reagent Co., Ltd (Shanghai, P.R. China), Cat #: 10000218.), which was formulated into a solution with a concentration of 6 mg/mL, stirred at 4° C. overnight, and added with an equal volume of Freund's incomplete adjuvant (Sigma-Aldrich.(St. Louis, Mo., USA), Cat #: SLBW0366.), fully emulsified to prepare an emulsion with a CII concentration of 3 mg/mL.
Female Lewis rats were purchased from Beijing Vital River Laboratory Animal Technology Co., Ltd. (certificate number 20200928Aazz0619000579, initial body weight of 110-130 grams), and 6 rats were randomly selected as a normal group; and all of the remaining rats were immunized. In the first immunization on day 0, the rats except those in the normal group were anesthetized with isoflurane (Hebei Yipin Pharmaceutical Co., Ltd., Lot: C002170601.), and then disinfected with 75% alcohol, and 0.2 mL of emulsion was injected intradermally at the base of the tail thereof. A second challenge was carried out on day 7, and 0.2 mL of emulsion was intradermally injected using the same method. Once the animals developed symptoms on day 10, the incidence conditions thereof were closely monitored.
After grouping, the normal group was not administered, and the rats in the other groups were administered with the control vehicle, 0.25 mg/kg and 4 mg/kg of the reference GDC-0853, and each dose of compound 1 orally once a day until the end of the experiment.
The paw volume was measured on day 10 after immunization, and the left and right hind paw volumes (V) were measured every day after the paw volume increase was detected.
The arthrosis paw volumes of the left and right hind limbs of each animal were measured, and the average paw volume (APV) was calculated according to the following formula: Average paw volume APV=(Vleft+Vright)/2
The average arthrosis paw volume of each animal before administration was used as the baseline (or considered 100% inhibition of inflammation). […]
The area under the curve (AUC) of the average paw volume swelling is the area under the curve of the arthrosis score swelling calculated by the trapezoid method, and the calculation formula is: AUCAPS=1/2×(APSd1+APSd2)×(d2−d1)+1/2×(APSd2+APSd3)×(d3−d2)+ . . . +1/2×(APSdn+APSd(n-1))×(dn−dn-1). […]
ED50 is calculated by XLfit software according to the AUC inhibition ratio of the area under the curve of the average paw volume swelling. […]

Phosphorylated BTK in Ramos cells, sequence (Q06187 whole entry): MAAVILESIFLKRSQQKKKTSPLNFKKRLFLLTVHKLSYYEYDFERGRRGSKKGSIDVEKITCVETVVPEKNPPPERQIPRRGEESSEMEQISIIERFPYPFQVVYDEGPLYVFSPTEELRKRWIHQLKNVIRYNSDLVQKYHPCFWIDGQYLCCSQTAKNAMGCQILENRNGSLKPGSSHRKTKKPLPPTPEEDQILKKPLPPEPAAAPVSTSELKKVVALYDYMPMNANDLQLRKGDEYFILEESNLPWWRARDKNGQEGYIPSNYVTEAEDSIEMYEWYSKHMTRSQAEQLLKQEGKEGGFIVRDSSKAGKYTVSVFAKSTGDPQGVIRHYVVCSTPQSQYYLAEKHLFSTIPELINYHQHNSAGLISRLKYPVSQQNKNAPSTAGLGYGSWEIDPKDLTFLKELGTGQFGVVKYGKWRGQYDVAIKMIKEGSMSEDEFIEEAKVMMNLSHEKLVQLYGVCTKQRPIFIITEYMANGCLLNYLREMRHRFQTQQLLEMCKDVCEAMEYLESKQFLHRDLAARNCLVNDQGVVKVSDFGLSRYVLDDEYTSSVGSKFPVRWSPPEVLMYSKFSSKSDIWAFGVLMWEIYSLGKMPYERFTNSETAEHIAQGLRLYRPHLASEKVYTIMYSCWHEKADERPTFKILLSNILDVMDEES

| SMILES | IC50 [1] [nM] | Inhibition ratio (%) on B cell activation [2] [%] | Inhibition ratio (%) on B cell activation ([2]; listed as compound 2) [%] | concentration at 16 h [3] [ng/mL] | RLM, percentage of the remaining compound after 30 minutes of incubation [4] [%] | effect on paw volume ([5]; 0.25 mg/kg oral QD) | effect on paw volume ([5]; 4 mg/kg oral QD) |
| --- | --- | --- | --- | --- | --- | --- | --- |
| C[C@@H]1CN(C2COC2)C[C@H](C)N1c1ccc(Nc2cc(-c3ccnc(-n4ccn5c6c(cc5c4=O)CC(C)(C)C6)c3CO)cn(C)c2=O)nc1 [Compound 2] | 6 | 43 | 43 | 6.6 ± 2.51 | – | – | – |
| C[C@H]1CN(C2COC2)CCN1c1ccc(Nc2cc(-c3ccnc(N4CCn5c(cc6c5CC(C)(C)C6)C4=O)c3CO)cn(C)c2=O)nc1 [GDC-0853, fenebrutinib, reference compound] | – | – | – | 5.01 ± 2.26 | 81.0 | no improvement effect | significantly reduced |
| C[C@H]1CN(C2COC2)C[C@H](C)N1c1ccc(Nc2cc(-c3ccnc(-n4ncn5c6c(cc5c4=O)CC(C)(C)C6)c3CO)cn(C)c2=O)nc1 [Compound 4, 2-(5-((5-((2S,6S)-2,6-dimethyl-4-(oxetan-3-yl)piperazin-1-yl)pyridin-2-yl)amino)-3′-(hydroxymethyl)-1-methyl-6-oxo-1,6-dihydro-[3,4′-bipyridin]-2′-yl)-7,7-dimethyl-7,8-dihydro-2H-cyclopenta[4,5]pyrrolo[1,2-d][1,2,4]triazin-1(6H)-one] | 3 | – | – | – | – | – | – |
